Source: patent US7781474B2, “Inhibitors of hepatitis C virus replication” (InterMune, Inc., priority 2006, dated 2010)
Structures can show the parent of a compound that is named as a salt.

Each molecule was assayed against T1, NS3/NS4A-2 (Hepatitis C virus genotype 1a, UniProt P27958) (assay: NS3 inhibition assay (NS3-NS4 protease assay)). Details: recombinant full-length NS3 (E. coli or Baculovirus) complexed with NS4A-2; RETS1 substrate.
T1 construct: Recombinant E. coli or Baculovirus full-length NS3 was diluted to 3.33 μM with assay buffer; made in house; host or cells: E. coli or Baculovirus (insect cells)
T1 sequence (P27958 1027-1657): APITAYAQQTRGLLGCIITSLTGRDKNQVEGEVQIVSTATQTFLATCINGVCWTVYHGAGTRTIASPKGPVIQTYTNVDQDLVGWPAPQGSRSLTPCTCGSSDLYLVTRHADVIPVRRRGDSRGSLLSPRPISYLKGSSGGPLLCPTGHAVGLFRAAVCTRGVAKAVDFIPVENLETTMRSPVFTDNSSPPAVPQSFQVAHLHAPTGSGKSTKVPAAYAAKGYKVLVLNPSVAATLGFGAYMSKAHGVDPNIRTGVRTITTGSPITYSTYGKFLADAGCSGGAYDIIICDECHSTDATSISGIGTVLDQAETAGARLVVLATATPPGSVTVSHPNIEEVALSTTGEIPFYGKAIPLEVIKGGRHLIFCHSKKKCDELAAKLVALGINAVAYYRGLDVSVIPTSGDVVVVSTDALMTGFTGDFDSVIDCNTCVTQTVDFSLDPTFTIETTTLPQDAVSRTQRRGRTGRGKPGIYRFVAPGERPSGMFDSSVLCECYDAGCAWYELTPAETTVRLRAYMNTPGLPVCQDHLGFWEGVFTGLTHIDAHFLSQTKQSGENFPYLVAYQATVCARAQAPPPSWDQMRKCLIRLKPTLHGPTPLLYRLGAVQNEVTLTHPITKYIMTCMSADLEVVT
Assay type: biochemical, hepatitis C virus (HCV)
Description: NS3 Complex Formation with NS4A-2.
Recombinant E. coli or Baculovirus full-length NS3 was diluted to 3.33 μM with assay buffer and transferred material to an eppendorf tube and place in water bath in 4° C. refrigerator. The appropriate amount of NS4A-2 to 8.3 mM in assay buffer was added to equal the volume of NS3 in step 2.1.1 (conversion factor—3.8 mg/272 μL assay buffer). The material was transferred to an eppendorf tube and place in water bath in 4° C. refrigerator.
After equilibration to 4° C., equal volumes of NS3 and NS4A-2 solutions were combined in an eppendorf tube, mix gently with a manual pipettor, and incubate mixture for 15 minutes in the 4° C. water bath. Final concentrations in the mixture are 1.67 μM NS3, 4.15 mM NS4A-2 (2485-fold molar excess NS4A-2).
After 15 minutes at 4° C., the NS3/NS4A-2 eppendorf tube was removed and place it in a room temperature water bath for 10 minutes. NS3/NS4A-2 was alliquoted at appropriate volumes and store at −80° C. (E. coli NS3 run at 2 nM in assay, aliquot at 25 μL. BV NS3 run at 3 nM in assay, aliquot at 30 μL).
Sample compounds were dissolved to 10 mM in DMSO then diluted to 2.5 mM (1:4) in DMSO. Typically, compounds were added to an assay plate at 2.5 mM concentration, yielding upon dilution a starting concentration of 50 microM in the assay inhibition curve. Compounds were serial diluted in assay buffer to provide test solutions at lower concentrations.
The E. coli. NS3/NS4A-2 was diluted to 4 nM NS3 (1:417.5 of 1.67 μM stock−18 μL 1.67 μM stock+7497 μL assay buffer). The BV NS3/NS4A-2 was diluted to 6 nM NS3 (1:278.3 of 1.67 μM stock−24 μL 1.67 μM stock+6655 μL assay buffer). Using the manual multichannel pipettor, careful not to introduce bubbles into the plate, add 50 μL assay buffer to wells A01-H01 of a black Costar 96-well polypropylene storage plate.
Using the manual multichannel pipettor, careful not to introduce bubbles into the plate, add 50 μL of diluted NS3/NS4A-2 from step 2.2.6 to wells A02-H12 of plate in step 2.2.7. Using the manual multichannel pipettor, careful not to introduce bubbles into the plate, transfer 25 μL of the wells in drug dilution plate in step 2.2.5 to corresponding wells in assay plate in step 2.2.8. Change tips on multichannel pipettor for each row of compounds transferred. Using the manual multichannel pipettor, careful not to introduce bubbles into the plate, mix the wells from the assay plate in step 2.2.9 by aspirating and dispensing 35 μL of the 75 μL in each well five times. Change tips on multichannel pipettor for each row of wells mixed. Cover plate with a polystyrene plate lid and pre-incubate the plate from step 2.2.10 containing NS3 protease and sample compounds 10 minutes at room temperature. While plate from step 2.2.11 is pre-incubating, dilute RETS1 substrate in a 15 mL polypropylene centrifuge tube. Dilute RETS1 substrate to 8 μM (1:80.75 of 646 μM stock−65 μL 646 μM stock+5184 μL assay buffer).
After the plate in step is done pre-incubating, and using the manual multichannel, add 25 μL of substrate to all wells on the plate. Quickly mix the plate as in step 2.2.10, mixing 65 μL of the 100 μL in the wells.
Read the plate in kinetic mode on the Molecular Devices SpectraMax Gemini XS plate reader. Reader settings: Read time: 30 minutes, Interval: 36 seconds, Reads: 51, Excitation λ: 335 nm, Emission λ: 495 nm, cutoff: 475 nm, Automix: off, Calibrate: once, PMT: high, Reads/well: 6, Vmax pts: 21 or 28/51 depending on length of linearity of reaction
IC50s are determined using a four parameter curve fit equation, and converted to Ki's using the following Km's: Full-length E. coli NS3−2.03 μM Full-length BV NS3−1.74 μM
where Ki=IC50/(1+[S]/Km))
Molecule `C=C[C@@H]1C[C@]1(NC(=O)C1CN(C(=O)OC(C)(C)C)Cc2c[nH]nc21)C(=O)NS(=O)(=O)C1CC1` (mixture of isomers) [Compound 104, Tert-butyl 7-((1R,2S)-1-(cyclopropylsulfonylcarbamoyl)-2-vinylcyclopropylcarbamoyl)-6,7-dihydro-2H-pyrazolo[4,3-c]pyridine-5(4H)-carboxylate] has an IC50 of 10 to 50 µM.
`C=C[C@@H]1C[C@]1(NC(=O)[C@@H]1C[C@@H](OC(=O)N2Cc3cccc(F)c3C2)CN1C(C)=O)C(=O)NS(=O)(=O)C1CC1` [Compound 90, (3R,5S)-1-acetyl-5-((1R,2S)-1-(cyclopropylsulfonylcarbamoyl)-2-vinylcyclopropylcarbamoyl)pyrrolidin-3-yl 4-fluoroisoindoline-2 carboxylate] was tested, and the IC50 was < 0.1 µM.
Work on `C=C[C@@H]1C[C@]1(NC(=O)[C@@H]1C[C@@H](OC(=O)N2Cc3cccc(F)c3C2)CN1C(=O)CNC(=O)OC(C)(C)C)C(=O)NS(=O)(=O)C1CC1` [Compound 91] yielded an IC50 of 0.1 to 1 µM.
`O=C(O)CNC(=O)C1CCCc2c[nH]nc21` (stereo not shown) [Compound 101] showed an IC50 of 10 to 50 µM.
`O=C(CNC(=O)C1CCCc2c[nH]nc21)NS(=O)(=O)C1CC1` (stereo not shown) [Compound 102] gave an IC50 of 1 to 10 µM.
Molecule `C=C[C@@H]1C[C@]1(NC(=O)C1CN(C(=O)Cc2ccccc2)Cc2c[nH]nc21)C(=O)NS(=O)(=O)C1CC1` (stereo partly drawn) [Compound 103, N-((1R,2S)-1-(cyclopropylsulfonylcarbamoyl)-2-vinylcyclopropyl)-5-(2-phenylacetyl)-4,5,6,7-tetrahydro-2H-pyrazolo[4,3-c]pyridine-7-carboxamide] has an IC50 of 1 to 10 µM.
Molecule `CCC[C@H](NC(=O)C1CN(C(=O)Cc2ccccc2)Cc2c[nH]nc21)C(=O)NS(=O)(=O)C1CC1` (stereo partly shown) [Compound 106] has an IC50 of 10 to 50 µM.
Work on `CCC[C@H](NC(=O)C1CNCc2c[nH]nc21)C(=O)NS(=O)(=O)C1CC1` (stereo partly shown) [Compound 107] yielded an IC50 of 10 to 50 µM.
`O=C(O)CNC(=O)C1CN(C(=O)Cc2ccccc2)Cc2c[nH]nc21` (stereo not shown) [Compound 108] gave an IC50 of 1 to 10 µM.
`O=C(CNC(=O)C1CNCc2c[nH]nc21)NS(=O)(=O)C1CC1` (stereo not shown) [Compound 109] showed an IC50 of 10 to 50 µM.
Molecule `O=C(O)C1CNCc2c[nH]nc21` (stereo not shown) [Compound 110] has an IC50 of 1 to 10 µM.
In the case of `C=C[C@@H]1C[C@]1(NC(=O)C1CNCc2c[nH]nc21)C(=O)NS(=O)(=O)C1CC1` (stereo partly drawn) [Compound 111, N-((1R,2S)-1-(cyclopropylsulfonylcarbamoyl)-2-vinylcyclopropyl)-4,5,6,7-tetrahydro-2H-pyrazolo[4,3-c]pyridine-7-carboxamide hydrochloride], the IC50 is reported as 10 to 50 µM.
`O=C(NC1(C(=O)NS(=O)(=O)C2CC2)CCC1)C1CNCc2c[nH]nc21` (stereo not shown) [Compound 112] was tested, and the IC50 was 1 to 10 µM.
